# Experimental data reported in ChEMBL document CHEMBL5696442, “Discovery of type II inhibitors of TGFβ-activated kinase 1 (TAK1) and mitogen-activated protein kinase kinase kinase kinase 2 (MAP4K2)” (J Med Chem, 2015).
# The source made the active and inactive calls. The calls are words filed in the database; no cut-off is given here.
# Experiments:
# [1] = target: Mitogen-activated protein kinase 7 (Homo sapiens) (UniProt Q13164); test: Inhibition of ERK5 (unknown origin) at 10 uM by Ambit Kinomescan binding assay
# [2] = test system: Receptor-type tyrosine-protein kinase FLT3 (Homo sapiens), P36888 [K663Q]; test: Inhibition of FLT3 K663Q mutant (unknown origin) at 10 uM by Ambit Kinomescan binding assay relative to control
# [3] = test system: Mast/stem cell growth factor receptor Kit (Homo sapiens), P10721 [V559D,T670I]; test: Inhibition of KIT V559D/T670I double mutant (unknown origin) at 10 uM by Ambit Kinomescan binding assay relative to control
# [4] = target: Serine/threonine-protein kinase RIO1 (Homo sapiens) (UniProt Q9BRS2); test: Inhibition of RIOK1 (unknown origin) at 10 uM by Ambit Kinomescan binding assay
# [5] = target: Tyrosine-protein kinase receptor TYRO3 (Homo sapiens) (UniProt Q06418); test: Inhibition of TYRO3 (unknown origin) at 10 uM by Ambit Kinomescan binding assay
# [6] = target: Serine/threonine-protein kinase 38-like (Homo sapiens) (UniProt Q9Y2H1); test: Inhibition of NDR2 ACT labeling site in human A-375 cells at 0.5 uM by KiNativ Profiling analysis relative to control; type: cell-based
# [7] = target: MAST1/MAST2 (Homo sapiens) (UniProt Q9Y2H9+Q6P0Q8); test: Inhibition of MAST1/2 K2 labeling site in human Huh-7 cells at 1 uM by KiNativ Profiling analysis relative to control; type: cell-based
# [8] = target: Fibroblast growth factor receptor 1 (Homo sapiens) (UniProt P11362); test: Inhibition of FGFR1 (unknown origin) at 10 uM by Ambit Kinomescan binding assay relative to control; values are per cent of control
# [9] = target: T1, Serine/threonine-protein kinase Chk1 (Homo sapiens) (UniProt O14757); test: Inhibition of CHEK1 (unknown origin) at 1 uM by Ambit Kinomescan binding assay relative to control
# T1 sequence (whole entry): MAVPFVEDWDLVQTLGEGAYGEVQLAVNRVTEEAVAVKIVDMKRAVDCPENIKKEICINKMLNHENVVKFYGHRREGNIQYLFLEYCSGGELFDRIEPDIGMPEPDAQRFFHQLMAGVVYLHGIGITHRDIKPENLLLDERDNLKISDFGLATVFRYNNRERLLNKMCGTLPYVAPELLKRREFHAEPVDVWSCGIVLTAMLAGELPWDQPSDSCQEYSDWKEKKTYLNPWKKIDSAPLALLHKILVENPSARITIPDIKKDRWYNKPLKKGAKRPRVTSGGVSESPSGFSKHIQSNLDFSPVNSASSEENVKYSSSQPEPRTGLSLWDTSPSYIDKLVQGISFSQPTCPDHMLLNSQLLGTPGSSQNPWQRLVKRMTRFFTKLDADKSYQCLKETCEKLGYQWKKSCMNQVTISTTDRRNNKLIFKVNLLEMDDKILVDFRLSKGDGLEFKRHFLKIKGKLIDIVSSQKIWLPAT
# [10] = target: T2, Mitogen-activated protein kinase 13 (Homo sapiens) (UniProt O15264); test: Inhibition of p38 delta (unknown origin) at 1 uM by Ambit Kinomescan binding assay relative to control
# T2 sequence (whole entry): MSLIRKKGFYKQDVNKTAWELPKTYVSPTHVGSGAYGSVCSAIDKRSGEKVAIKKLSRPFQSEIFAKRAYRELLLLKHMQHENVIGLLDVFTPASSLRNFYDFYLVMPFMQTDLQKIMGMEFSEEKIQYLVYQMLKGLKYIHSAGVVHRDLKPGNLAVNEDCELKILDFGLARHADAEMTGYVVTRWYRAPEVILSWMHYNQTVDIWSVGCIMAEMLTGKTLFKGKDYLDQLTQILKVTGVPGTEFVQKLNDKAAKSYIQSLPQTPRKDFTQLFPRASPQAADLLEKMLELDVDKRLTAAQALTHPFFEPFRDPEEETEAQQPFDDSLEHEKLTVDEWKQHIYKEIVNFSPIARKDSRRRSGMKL
# [11] = target: Mitogen-activated protein kinase kinase kinase 4 (Homo sapiens) (UniProt Q9Y6R4); test: Inhibition of MAP3K4 Lys2 labeling site in human A-375 cells at 0.05 uM by KiNativ Profiling analysis relative to control; type: cell-based
# [12] = target: Phosphatidylinositol 4,5-bisphosphate 3-kinase catalytic subunit beta isoform (Homo sapiens) (UniProt P42338); test: Inhibition of PIK3CB (unknown origin) at 1 uM by Ambit Kinomescan binding assay relative to control; values are per cent of control
# [13] = target: Phosphatidylinositol 4-kinase type 2-beta (Homo sapiens) (UniProt Q8TCG2); test: Inhibition of PI4K2B ATP labeling site in human Huh-7 cell lysate at 1 uM by KiNativ Profiling analysis relative to control; type: subcellular
# [14] = target: T3, Mitogen-activated protein kinase kinase kinase 7 (Homo sapiens) (UniProt O43318); test: Inhibition of TAK1 Lys2 labeling site harbouring DLKPPNLLLVAGGTVLK in human Huh-7 cells at 1 uM by KiNativ Profiling analysis relative to control; type: cell-based
# T3 sequence (whole entry): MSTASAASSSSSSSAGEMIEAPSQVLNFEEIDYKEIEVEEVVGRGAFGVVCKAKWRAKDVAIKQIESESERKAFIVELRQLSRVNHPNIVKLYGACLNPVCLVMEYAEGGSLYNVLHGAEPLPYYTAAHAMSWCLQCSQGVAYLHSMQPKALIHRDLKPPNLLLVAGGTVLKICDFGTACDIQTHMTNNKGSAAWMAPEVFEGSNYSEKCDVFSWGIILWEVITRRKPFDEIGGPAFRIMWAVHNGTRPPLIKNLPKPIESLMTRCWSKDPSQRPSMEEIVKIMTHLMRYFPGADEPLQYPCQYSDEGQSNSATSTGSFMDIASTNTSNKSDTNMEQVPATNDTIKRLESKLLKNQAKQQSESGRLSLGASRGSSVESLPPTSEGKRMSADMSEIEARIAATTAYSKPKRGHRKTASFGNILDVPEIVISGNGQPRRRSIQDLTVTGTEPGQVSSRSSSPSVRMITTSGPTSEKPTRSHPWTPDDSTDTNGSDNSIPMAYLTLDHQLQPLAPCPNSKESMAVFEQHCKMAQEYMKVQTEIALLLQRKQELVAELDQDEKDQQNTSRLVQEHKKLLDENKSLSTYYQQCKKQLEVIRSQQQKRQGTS
# Phosphatidylinositol 4-kinase type 2-beta (Homo sapiens), sequence (Q8TCG2 whole entry): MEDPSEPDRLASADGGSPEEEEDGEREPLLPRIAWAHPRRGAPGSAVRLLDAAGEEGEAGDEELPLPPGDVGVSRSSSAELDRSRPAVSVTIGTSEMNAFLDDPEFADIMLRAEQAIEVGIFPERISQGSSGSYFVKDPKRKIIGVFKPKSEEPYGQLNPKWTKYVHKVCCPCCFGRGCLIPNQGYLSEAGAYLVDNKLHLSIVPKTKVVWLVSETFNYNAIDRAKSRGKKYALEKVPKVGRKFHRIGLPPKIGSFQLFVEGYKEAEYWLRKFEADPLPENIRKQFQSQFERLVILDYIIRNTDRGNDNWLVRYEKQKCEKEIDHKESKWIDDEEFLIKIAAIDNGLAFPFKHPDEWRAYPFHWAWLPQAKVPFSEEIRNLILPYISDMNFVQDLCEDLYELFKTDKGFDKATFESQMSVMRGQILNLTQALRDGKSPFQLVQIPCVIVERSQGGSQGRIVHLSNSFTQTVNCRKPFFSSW
# Serine/threonine-protein kinase RIO1 (Homo sapiens), sequence (Q9BRS2 whole entry): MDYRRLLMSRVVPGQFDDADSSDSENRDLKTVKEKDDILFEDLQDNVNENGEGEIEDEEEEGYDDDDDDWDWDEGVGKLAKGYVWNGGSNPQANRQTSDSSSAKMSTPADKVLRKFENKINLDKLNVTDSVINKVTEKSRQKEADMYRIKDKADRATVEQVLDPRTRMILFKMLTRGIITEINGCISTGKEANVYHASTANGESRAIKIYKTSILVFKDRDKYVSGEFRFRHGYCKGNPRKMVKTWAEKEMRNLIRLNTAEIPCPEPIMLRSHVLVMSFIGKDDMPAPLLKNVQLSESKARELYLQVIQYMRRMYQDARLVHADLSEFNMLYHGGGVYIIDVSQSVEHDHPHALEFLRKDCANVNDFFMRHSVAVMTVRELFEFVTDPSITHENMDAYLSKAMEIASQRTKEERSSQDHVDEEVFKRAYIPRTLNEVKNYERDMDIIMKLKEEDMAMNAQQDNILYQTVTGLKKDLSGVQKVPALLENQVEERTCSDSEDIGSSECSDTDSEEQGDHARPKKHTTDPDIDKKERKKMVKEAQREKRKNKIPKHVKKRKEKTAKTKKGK
# MAST1/MAST2 (Homo sapiens), sequence (Q6P0Q8 whole entry, looked up): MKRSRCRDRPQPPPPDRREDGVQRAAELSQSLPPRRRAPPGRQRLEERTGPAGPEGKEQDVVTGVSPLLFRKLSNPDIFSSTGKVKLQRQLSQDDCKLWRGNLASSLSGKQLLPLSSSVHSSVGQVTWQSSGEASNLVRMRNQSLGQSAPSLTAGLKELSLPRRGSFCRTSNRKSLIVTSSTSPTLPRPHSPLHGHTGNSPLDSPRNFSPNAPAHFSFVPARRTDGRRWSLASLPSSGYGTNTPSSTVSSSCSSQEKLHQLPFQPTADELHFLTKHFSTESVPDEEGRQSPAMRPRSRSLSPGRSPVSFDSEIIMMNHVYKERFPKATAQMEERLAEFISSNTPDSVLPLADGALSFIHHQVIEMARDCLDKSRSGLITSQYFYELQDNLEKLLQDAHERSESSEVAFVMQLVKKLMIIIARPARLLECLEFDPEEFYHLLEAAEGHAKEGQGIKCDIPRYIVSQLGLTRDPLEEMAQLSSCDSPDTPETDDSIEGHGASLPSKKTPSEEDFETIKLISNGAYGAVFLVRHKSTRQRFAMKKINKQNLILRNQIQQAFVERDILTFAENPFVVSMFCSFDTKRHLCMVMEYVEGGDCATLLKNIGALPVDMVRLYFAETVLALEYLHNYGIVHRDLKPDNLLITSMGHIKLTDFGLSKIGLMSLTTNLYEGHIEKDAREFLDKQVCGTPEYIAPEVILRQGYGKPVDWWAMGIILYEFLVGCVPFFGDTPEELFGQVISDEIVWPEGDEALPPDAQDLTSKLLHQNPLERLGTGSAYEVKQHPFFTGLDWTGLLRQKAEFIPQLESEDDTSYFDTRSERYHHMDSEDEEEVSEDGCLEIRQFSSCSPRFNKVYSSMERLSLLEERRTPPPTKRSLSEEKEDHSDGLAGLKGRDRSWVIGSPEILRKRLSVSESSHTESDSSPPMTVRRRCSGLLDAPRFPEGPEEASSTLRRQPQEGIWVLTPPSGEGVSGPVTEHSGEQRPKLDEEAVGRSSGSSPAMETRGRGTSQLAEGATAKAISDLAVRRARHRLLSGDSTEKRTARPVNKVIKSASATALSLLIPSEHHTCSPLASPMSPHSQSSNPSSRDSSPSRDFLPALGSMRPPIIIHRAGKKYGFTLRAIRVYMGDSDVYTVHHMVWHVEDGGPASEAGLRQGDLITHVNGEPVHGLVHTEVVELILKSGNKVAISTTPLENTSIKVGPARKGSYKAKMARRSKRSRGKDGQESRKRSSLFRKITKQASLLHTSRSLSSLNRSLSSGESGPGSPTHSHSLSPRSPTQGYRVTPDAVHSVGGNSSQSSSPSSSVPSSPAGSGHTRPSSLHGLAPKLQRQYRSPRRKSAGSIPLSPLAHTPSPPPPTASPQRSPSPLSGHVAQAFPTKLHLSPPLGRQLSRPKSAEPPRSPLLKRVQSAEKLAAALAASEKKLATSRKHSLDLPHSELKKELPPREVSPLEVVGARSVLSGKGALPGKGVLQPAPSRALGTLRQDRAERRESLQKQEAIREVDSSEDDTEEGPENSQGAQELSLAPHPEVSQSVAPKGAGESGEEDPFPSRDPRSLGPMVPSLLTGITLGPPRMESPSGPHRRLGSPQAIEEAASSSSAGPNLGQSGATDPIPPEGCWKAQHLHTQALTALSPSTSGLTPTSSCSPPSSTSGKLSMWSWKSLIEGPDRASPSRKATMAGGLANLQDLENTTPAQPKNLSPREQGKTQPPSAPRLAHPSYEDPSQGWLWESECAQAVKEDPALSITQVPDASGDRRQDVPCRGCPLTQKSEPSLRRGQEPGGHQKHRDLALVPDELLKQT
# MAST1/MAST2 (Homo sapiens), sequence (Q9Y2H9 whole entry, looked up): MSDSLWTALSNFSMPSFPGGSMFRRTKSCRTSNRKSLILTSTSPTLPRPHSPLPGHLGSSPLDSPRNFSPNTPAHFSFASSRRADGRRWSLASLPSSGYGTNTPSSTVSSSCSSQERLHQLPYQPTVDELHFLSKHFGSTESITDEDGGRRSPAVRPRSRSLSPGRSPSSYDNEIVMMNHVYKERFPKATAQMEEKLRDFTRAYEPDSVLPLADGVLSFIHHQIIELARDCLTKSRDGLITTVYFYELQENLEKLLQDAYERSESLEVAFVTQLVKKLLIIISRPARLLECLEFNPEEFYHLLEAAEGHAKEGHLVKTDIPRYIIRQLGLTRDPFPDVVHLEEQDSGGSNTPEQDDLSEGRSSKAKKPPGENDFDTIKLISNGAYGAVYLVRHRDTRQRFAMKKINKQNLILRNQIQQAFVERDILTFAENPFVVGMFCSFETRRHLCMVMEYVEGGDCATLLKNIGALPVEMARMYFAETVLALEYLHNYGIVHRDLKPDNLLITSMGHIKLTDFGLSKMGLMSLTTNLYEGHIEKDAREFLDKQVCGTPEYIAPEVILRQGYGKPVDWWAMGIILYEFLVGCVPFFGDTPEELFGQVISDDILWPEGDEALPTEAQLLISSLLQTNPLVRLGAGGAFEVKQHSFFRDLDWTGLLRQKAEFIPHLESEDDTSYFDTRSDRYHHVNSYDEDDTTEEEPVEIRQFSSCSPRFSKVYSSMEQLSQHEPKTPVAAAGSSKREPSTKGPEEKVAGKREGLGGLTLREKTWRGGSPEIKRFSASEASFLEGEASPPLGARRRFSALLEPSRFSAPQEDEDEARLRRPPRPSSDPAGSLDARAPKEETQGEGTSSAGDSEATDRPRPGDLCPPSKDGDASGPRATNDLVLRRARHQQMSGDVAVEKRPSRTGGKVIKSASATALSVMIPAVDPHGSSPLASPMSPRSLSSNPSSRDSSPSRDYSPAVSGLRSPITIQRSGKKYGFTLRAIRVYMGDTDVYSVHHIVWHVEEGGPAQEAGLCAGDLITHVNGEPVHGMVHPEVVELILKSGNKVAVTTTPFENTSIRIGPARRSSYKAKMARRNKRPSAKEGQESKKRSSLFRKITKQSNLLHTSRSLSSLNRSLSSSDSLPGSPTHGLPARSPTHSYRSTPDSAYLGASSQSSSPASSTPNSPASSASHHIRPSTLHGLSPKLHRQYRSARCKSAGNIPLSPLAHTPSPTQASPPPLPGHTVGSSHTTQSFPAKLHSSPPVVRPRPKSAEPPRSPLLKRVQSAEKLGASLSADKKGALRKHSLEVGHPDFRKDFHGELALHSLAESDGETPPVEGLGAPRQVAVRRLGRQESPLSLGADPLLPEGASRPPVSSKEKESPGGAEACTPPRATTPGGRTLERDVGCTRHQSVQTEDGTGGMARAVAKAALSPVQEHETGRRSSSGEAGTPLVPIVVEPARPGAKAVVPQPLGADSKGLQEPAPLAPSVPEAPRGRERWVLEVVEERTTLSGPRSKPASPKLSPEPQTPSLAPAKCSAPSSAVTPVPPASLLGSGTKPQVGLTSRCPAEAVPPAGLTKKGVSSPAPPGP
# Serine/threonine-protein kinase 38-like (Homo sapiens), sequence (Q9Y2H1 2-464 limits assumed): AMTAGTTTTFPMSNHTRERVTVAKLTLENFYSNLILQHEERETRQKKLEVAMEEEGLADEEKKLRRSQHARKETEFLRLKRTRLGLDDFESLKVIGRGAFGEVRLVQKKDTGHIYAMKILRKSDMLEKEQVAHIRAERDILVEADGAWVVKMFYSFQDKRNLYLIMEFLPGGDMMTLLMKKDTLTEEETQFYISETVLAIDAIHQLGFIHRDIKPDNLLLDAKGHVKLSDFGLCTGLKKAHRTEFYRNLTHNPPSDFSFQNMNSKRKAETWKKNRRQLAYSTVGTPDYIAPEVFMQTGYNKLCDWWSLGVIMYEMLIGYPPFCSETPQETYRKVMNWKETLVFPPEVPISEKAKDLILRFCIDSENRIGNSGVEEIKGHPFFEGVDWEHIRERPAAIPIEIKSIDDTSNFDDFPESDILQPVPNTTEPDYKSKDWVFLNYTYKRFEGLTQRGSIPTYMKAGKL
structure (smiles),measurement,setting,value
CCN1CCN(Cc2ccc(NC(=O)c3ccc(C)c(Oc4ccnc5[nH]ccc45)c3)cc2C(F)(F)F)CC1,inhibition,[1],inactive
same,inhibition,[2],0%
same,inhibition,[3],0.05%
same,inhibition,[4],inactive
same,inhibition,[5],inactive
same,inhibition,[6],-4.5%
same,inhibition,[7],-7.1%
same,% of control,[8],1.7%
CCN1CCN(Cc2ccc(NC(=O)c3ccc(C)c(/C=C/c4cnc5[nH]ccc5c4OC)c3)cc2C(F)(F)F)CC1,inhibition,[9],100%
same,inhibition,[10],67%
same,inhibition,[11],-0.6%
same,residual activity,[12],100%
CNc1cc(Oc2cc(C(=O)Nc3cc(N4CCN(C)CC4)cc(C(F)(F)F)c3)ccc2C)ncn1,inhibition,[13],25%
same,inhibition,[14],2.5%
